The text below walks through data of publication PMC4198181, “Gold(I) Complexes of 9-Deazahypoxanthine as Selective Antitumor and Anti-Inflammatory Agents” (PLoS ONE, 2014).

The test system of assay [1] is polymorphonuclear cells infiltration in hind paw tissue. Briefly: Ex vivo histological evaluation of hind paw tissue (HE staining, PMN infiltration). Format: in vivo, Wistar-SPF rats. Particulars: 6 h after carrageenan, Indomethacin 5 mg/kg. The procedure: The carrageenan-induced hind paw edema model was used for the determination of anti-inflammatory activity. Animals were i.p. pretreated with complexes 2, 4, and 5 (the dosages of the individual complexes were adjusted to contain the same amount of gold as in 10 mg/kg dose of Auranofin), Indomethacin (5 mg/kg), or 25% DMSO (v/v in water) 30 min prior to the injection of 1% λ-carrageenan solution (50 µL) into the plantar side of right hind paws of the rats. The paw volume was measured immediately after the carrageenan injection (this value was set-up as baseline value for the hind paw volume) and during the next 6 h after the administration of the edematogenic agent using a plethysmometer (model 7159, Ugo Basile, Varese, Italy). The degree of swelling was evaluated as a percentage of the change of the volume of the right hind paw after the carrageenan treatment from the baseline volume. A non-steroidal anti-inflammatory drug Indomethacin was used as a positive control and the obtained data were also compared with the previously reported profile of antiedematous activity for Auranofin [38]. After 6 h, the animals were sacrificed and the edematous feet were dissected, the tissue from the plantar parts was extracted, fixed and stained by a standard hematoxylin/eosin (HE) staining for cytological evaluation of polymorphonuclear cells infiltration.
To assess the tissue consequences connected with the reduction of inflammation caused by the tested compounds after the intraplantar injection of carrageenan, the histopathological observations were made on the tissue sections obtained from the laboratory animals after the plethysmometric experiments were finished. All animals were sacrificed by cervical dislocation, and immediately after that, the tissue samples were taken from the plantar area of hind paws. The histopathological changes in tissues, stained by the standard HE staining (see Figure 10), were evaluated by the presence of the inflammation infiltrate, which contained mainly neutrophils (polymorphonuclear cells - PMN).

Assay [2] deals with A2780R ovarian carcinoma cells resistant to cisplatin. Briefly: MTT in vitro cytotoxicity, A2780R. The format is cell-based, human. Particulars: 24 h treatment, MTT; read-out: IC50±S.E., A2780R. The procedure: (§1) In vitro cytotoxic activity was determined by the MTT assay in human breast adenocarcinoma (MCF7; ECACC no. 86012803), human osteosarcoma (HOS; ECACC no. 87070202), lung carcinoma (A549; ECACC no. 86012804), malignant melanoma (G361; ECACC no. 88030401), cervix epitheloid carcinoma (HeLa; ECACC no. 93021013), ovarian carcinoma (A2780; ECACC no. 93112519), cisplatin-resistant ovarian carcinoma (A2780R; […] ECACC no 105092802) cancer cell lines, purchased from European Collection of Cell Cultures (ECACC). […] The primary culture of human hepatocytes (HEP220, batch number HEP220819) was obtained from Biopredic International (France). The culture medium was Williams and HAM's F-12 (1∶1) supplemented with penicillin, streptomycin, ascorbic acid, linoleic acid, holo-transferin, ethanolamine, glucagon, insulin, dexamethasone, pyruvate, glucose, glutamine, amphotericin. The medium was enriched for plating with 2% foetal calf serum (v/v). The medium was exchanged for a serum-free medium the day after and the culture was stabilized for additional 24 h. Thereafter, the cells were ready for treatments. […] The MTT assay was performed spectrophotometrically at 540 nm (TECAN, Schoeller Instruments LLC). The cytotoxicity data were expressed as the percentage of viability, where 100% represented the treatments with vehicle (0.1% DMF or 0.1% DMSO). The cytotoxicity data from the cancer cell lines were acquired from three independent experiments (conducted in triplicate) using cells from different passages. The IC50 values were calculated from viability curves. The results are presented as arithmetic means±standard error of the mean (S.E.).

Assay [3] deals with THP-1 monocytic leukaemia cells. Briefly: WST-1 in vitro cytotoxicity, THP-1. Format: cell-based, human. To be noted: 24 h treatment, WST-1, 0.16–10.00 µM; read-out: IC50±S.E., THP-1. How it is done: Before the in vitro anti-inflammatory testing, in vitro cytotoxicity on human monocytic leukaemia cells (THP-1, ECACC no. 88081201) was determined using the WST-1 assay. The THP-1 cells (floating monocytes, 500 000 cells/mL) were incubated in 100 µL of the serum-free RPMI 1640 medium and seeded into 96-well plates in triplicate at 37°C. Measurements were taken 24 h after the treatment with the tested compounds dissolved in 0.1% DMSO in the concentration range of 0.16–10.00 µM. Viability was determined by the WST-1 test according to the manufacturer's manual. The amount of the formed formazan (which correlates to the number of metabolically active cells in the culture) was calculated as a percentage of the control cells, which were treated only with 0.1% DMSO and was set-up as 100%. The IC50 values of the tested compounds were calculated from the obtained data. The WST-1 assay was performed spectrophotometrically at 440 nm (FLUOstar Omega, BMG Labtech).
The cytotoxicity data were expressed as the percentage of viability, where 100% represented the treatments with vehicle (0.1% DMF or 0.1% DMSO). The cytotoxicity data from the cancer cell lines were acquired from three independent experiments (conducted in triplicate) using cells from different passages. The IC50 values were calculated from viability curves. The results are presented as arithmetic means±standard error of the mean (S.E.). The significance of the differences between the results was assessed by the ANOVA analysis with p<0.05 considered to be significant (QC Expert 3.2, Statistical software, TriloByte Ltd., Pardubice, Czech Republic).

Assay [4] relates to A549 lung carcinoma cells. Briefly: MTT in vitro cytotoxicity, A549. Format: cell-based, human. Particulars: 24 h treatment, read-out: IC50±S.E., A549. How it is done: as §1
For assay [5], the system named is A2780 ovarian carcinoma cells. Description: MTT in vitro cytotoxicity, A2780. Format: cell-based, human. Particulars: 24 h treatment, read-out: IC50±S.E., A2780. The procedure: as §1
Assay [6] deals with MCF7 breast carcinoma cells. Description: MTT in vitro cytotoxicity, MCF7. Format: cell-based, human. To be noted: 24 h treatment, read-out: IC50±S.E., MCF7. How it is done:
as §1

For orientation: IC50 means the concentration needed to halve the response being measured.

Consider `[Au][n]1ccc2ncnc(OCCc3ccccc3)c21.c1ccc(P(c2ccccc2)c2ccccc2)cc1` [complex 5], for which the “PMN (neutrophil) infiltrate in hind paw tissue sections” value in assay [1] is “massive presence of PMN cells”. For the same molecule, the IC50 in assay [2] is 5 ± 0.3 µM; in assay [3], 1.4 ± 0.1 µM; in assay [4], 18.3 ± 0.5 µM; in assay [5] it was 4.4 ± 0.3 µM; in assay [6], greater than 50 µM.
Take `CC(C)Oc1ncnc2cc[n]([Au])c12.c1ccc(P(c2ccccc2)c2ccccc2)cc1` [complex 2, [Au(L2)(PPh3)]]: the “PMN (neutrophil) infiltrate in hind paw tissue sections” value in assay [1] is “mainly scarce and diffuse”. Besides, the IC50 was found to be 5.3 ± 0.4 µM in assay [2]; 0.8 ± 0.1 µM in assay [3]; 17.2 ± 0.7 µM in assay [4]; 4 ± 0.2 µM in assay [5]; 0.6 ± 0.1 µM in assay [6].
